The subject of the test is M. tuberculosis H37Rv growth inhibition with meropenem. Put plainly: dose response, H37Rv, with and without meropenem (AID 434987).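 Note: growth over 7 days at 37 °C before Alamar Blue read on day 9.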
The mark [1] stands for this setting: M. tuberculosis H37Rv growth inhibition, measured here: IC50 without meropenem.
Where [2] appears, read: M. tuberculosis H37Rv growth inhibition, measured here: IC90 without meropenem.
Where [3] appears, read: measured here: IC90 with meropenem.

Activity calls are given as the source filed them. The rule behind the calls is not given here.

With `O=C(O)C1CC(=O)N(c2ccc(OCc3ccccc3Cl)cc2)C1` (stereo not drawn), the IC50 is 14.2 µM. Under setting [1], the IC50 was 41.6 µM. For the same molecule, under setting [2], the IC90 was greater than 100 µM. For the same molecule, the IC90 under setting [3] was greater than 100 µM.
As for `COC(=O)c1c(CSc2cccc(C)c2)noc1C(=O)NCc1ccco1`, the IC50 is > 100 µM (inactive). The same molecule showed an IC50 under setting [1] greater than 100 µM. The same molecule registered an IC90 under setting [2] greater than 100 µM. The molecule further yielded an IC90 under setting [3] greater than 100 µM.
As for `COc1ccc2oc(C(=O)Nc3nc4ccccc4[nH]3)c(C)c2c1`, the IC50 was 1.7 µM. Also, the IC50 under setting [1] came to 36.9 µM. The molecule further registered an IC90 under setting [2] greater than 100 µM. The IC90 under setting [3] is greater than 100 µM.
With `COC(=O)c1c(C)n(-c2ccccc2)c2ccc(O)cc12`, the IC50 is 1.53 µM. The IC50 under setting [1] was greater than 100 µM. Under setting [2], this molecule registered a concentration for an effect of 90% (IC90) greater than 100 µM. The molecule further came in with an IC90 under setting [3] greater than 100 µM.
Consider `COc1cc(OC)cc(-c2cc3ccc(OC)cc3cn2)c1`, for which the IC50 is 29 µM (inactive). The same molecule showed an IC50 under setting [1] of 39 µM. Moreover, the IC90 under setting [2] was determined as 85.8 µM. This molecule also registered an IC90 under setting [3] of 76.9 µM.
On the same counts, the results for `CC1(C)C[C@@H]1C(=O)N/C(=C\CCCCSC[C@H](N)C(=O)O)C(=O)O` are > 100 µM (inactive), greater than 100 µM, greater than 100 µM and greater than 100 µM.
For `COc1ccc(-c2csc(NC(=O)c3c(C)noc3C)n2)cc1` the same measures were 25.9 µM, greater than 100 µM, greater than 100 µM and greater than 100 µM.
On the same counts, the results for `CCN(CC)C(=O)C1CCCN(c2ccc([N+](=O)[O-])cc2/C=N/NC(=O)c2cccc([N+](=O)[O-])c2)C1` (stereo not drawn) are > 100 µM (inactive), greater than 100 µM, greater than 100 µM and greater than 100 µM.
Take `CC1CCN(CC(CS(=O)(=O)c2ccc([N+](=O)[O-])cc2)N2CCC(C)CC2)CC1` (stereo not drawn): the IC50 is 13.7 µM (inactive). Further, the IC50 under setting [1] was 21 µM. Under setting [2], this molecule showed an IC90 of 30.3 µM. Further, under setting [3], the IC90 was found to be 31.5 µM.
On the same counts, the results for `O=C(CSc1nnc(-c2cnccn2)n1Cc1ccco1)Nc1ccc(Br)cc1` are 44.2 µM (inactive), greater than 100 µM, greater than 100 µM and greater than 100 µM.
On the same counts, the results for `COc1cc(/C=N/NC(N)=S)ccc1OC(=O)c1ccc(C)cc1` are > 100 µM (inactive), greater than 100 µM, greater than 100 µM and greater than 100 µM.
On the same counts, the results for `C[C@]12CC[C@@H]3c4ccc(OS(=O)(=O)O)cc4CC[C@H]3[C@@H]1CCC2=O` are > 100 µM (inactive), greater than 100 µM, greater than 100 µM and greater than 100 µM.
Turning to `O=C(Nc1c2c(nc3ccccc13)CCCC2)c1ccccc1F`, the IC50 is 42.6 µM (inactive). In addition, under setting [1], the IC50 turned out to be 74 µM. Further, the IC90 under setting [2] was greater than 100 µM. The IC90 under setting [3] is greater than 50 µM.
On the same counts, the results for `CN(/N=C/c1ccncc1)c1cnc2ccccc2n1` are 59.8 µM (inactive), greater than 100 µM, greater than 100 µM and greater than 100 µM.
On the same counts, the results for `CCCc1cc(C(=O)OCC(=O)N2CCN(c3ccc(OC)cc3)CC2)sc1C` are > 100 µM (inactive), greater than 100 µM, greater than 100 µM and greater than 100 µM.
On the same counts, the results for `O=c1c(N=Nc2ccc(O)cc2)c(-c2ccccc2)[nH]n1-c1ccc([N+](=O)[O-])cc1` are > 100 µM (inactive), greater than 100 µM, greater than 100 µM and greater than 100 µM.
Consider `COc1ccc(-c2csc(Nc3ccc(C)cn3)n2)cc1OC`, for which the IC50 was 44.3 µM (inactive). Also, the half-inhibitory concentration (IC50) under setting [1] is greater than 100 µM. Under setting [2], this molecule returned an IC90 greater than 100 µM. The same molecule had an IC90 under setting [3] greater than 100 µM.
As for `CC(C)N1CCc2c(sc(NC(=O)c3cc(-c4cccs4)nc4ccccc34)c2C(N)=O)C1`, the IC50 was 13.7 µM (inactive). The molecule further yielded an IC50 under setting [1] of 24.8 µM. This molecule also returned an IC90 under setting [2] greater than 100 µM. This molecule registered an IC90 under setting [3] greater than 100 µM.
Regarding `Cc1ccc(NC(=O)/C=C\C(=O)O)c([N+](=O)[O-])c1`, the IC50 was 56.7 µM (inactive). For the same molecule, the IC50 under setting [1] is 95.7 µM. Under setting [2], this molecule had an IC90 greater than 100 µM. In addition, under setting [3], the IC90 is greater than 100 µM.
Turning to `CSc1ccc(-c2nnn(CC(=O)NCc3ccccc3)n2)cc1`, the IC50 is 15.8 µM. This molecule gave an IC50 under setting [1] greater than 100 µM. Moreover, the IC90 under setting [2] was greater than 100 µM. This molecule also had an IC90 under setting [3] greater than 100 µM.
In the case of `N#Cc1ccc(C23CC4(C2)[C@H](CN(Cc2cccnc2)[C@@H]4c2ccccc2)C3c2ccccc2)cc1` (stereo partly drawn), the IC50 is 56.2 µM (inactive). This molecule yielded an IC50 under setting [1] of 72.8 µM. Also, under setting [2], the IC90 was greater than 100 µM. This molecule displayed an IC90 under setting [3] greater than 100 µM.
For `CCn1c(O)c(/C=N/NC(=O)c2ccccc2)c(=O)n(CC)c1=S`, the IC50 was 16.2 µM. Under setting [1], this molecule displayed an IC50 greater than 100 µM. Besides, the IC90 under setting [2] is greater than 100 µM. Under setting [3], this molecule showed an IC90 greater than 100 µM.
